# Measured values published in US7297714B2, “Inhibitors of cathepsin S” (IRM LLC, priority 2003, dated 2007).
# Target: T1, Caspase 1 (Homo sapiens, UniProt P29466)
# T1 sequence (P29466 120-297 limits assumed): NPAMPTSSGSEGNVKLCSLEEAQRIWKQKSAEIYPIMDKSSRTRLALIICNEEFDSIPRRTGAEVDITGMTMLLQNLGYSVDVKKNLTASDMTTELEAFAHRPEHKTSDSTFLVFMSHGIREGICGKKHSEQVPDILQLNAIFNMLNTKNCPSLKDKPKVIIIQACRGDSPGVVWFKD
# T1 sequence (P29466 317-404 limits assumed): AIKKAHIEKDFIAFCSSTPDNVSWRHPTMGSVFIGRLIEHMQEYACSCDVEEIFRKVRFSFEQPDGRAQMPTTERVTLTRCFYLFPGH
# Experiment: Inhibition Assay for Caspase 1
# Type: biochemical
# Conditions: Caspase-1 inhibition constant; pH 7.4; read-out: Ki Cas-1
# Procedure: The widely used substrate for caspase 1, acetyl-tryptophan-glutamate-histidine-spartic acid-amino carbamoyl coumarin, was used. Kinetic measurements are performed in a total reaction volume of 30 μl in 384-well microtiter plates. Caspase 1, at a final concentration of 0.2-1 nM (active site), is incubated with the compounds at twelve varying concentrations in a buffer containing 20 mM Hepes (pH 7.4), 1 mM EDTA, 100 mM NaCl, 0.1% CHAPS, 10% sucrose, 10 mM DTT for 20 minutes at room temperature. Control reactions in the absence of inhibitor are performed in replicates of 12. The reactions are initiated by adding the substrate to a final concentration of 4 μM. The rate of substrate hydrolysis is measured by monitoring the increase in fluorescence at an excitation wavelength of 380 nm and an emission wavelength of 450 nm that results from cleavage of the aniline bond in the substrate by the enzyme. The apparent inhibition constants for the compounds are determined from the enzyme progress curves (Kuzmic, Elrod et al. 2000) and are then used to calculate the inhibition constants for competitive inhibitors (Km=8 μM).
row,SMILES,Ki [µM]
1,"O=C1C[C@H](NC(=O)[C@H](CC2CCCC2)NC(=O)c2ccc(-c3cccc(F)c3)o2)C(O)O1 (stereo partly drawn) [Example 1, (3S)-(3-Cyclopentyl-(2S)-{[5-(3-fluoro-phenyl)-furan-2-carbonyl]-amino}-propionylamino)-4-oxo-butyric acid]",> 1
2,"O=C1C[C@H](NC(=O)[C@H](CC2CCCC2)NC(=O)N2CCOCC2)C(O)O1 (stereo partly drawn) [Example 2, (3S)-{3-Cyclopentyl-(2S)-[(morpholine-4-carbonyl)-amino]-propionylamino}-4-oxo-butyric acid]",> 100
3,"O=C1C[C@H](NC(=O)[C@H](CC2CCCCC2)OC(=O)N2CCOCC2)C(O)O1 (stereo partly drawn) [Example 3, (3S)-{3-cyclohexyl-(2S)-(morpholine-4-carbonyloxy)-propionylamino}-4-oxo-butyric acid]",> 10
4,"O=C[C@H](CC(=O)O)NC(=O)[C@@H](CC(=O)N1CCOCC1)CC1CCCC1 [Example 4, (3S)-[(2R)-Cyclopentylmethyl-4-morpholin-4-yl-4-oxo-butyrylamino]-4-oxo-butyric acid]",> 10
5,"O=C1C[C@H](NC(=O)O[C@@H](CC2CCCC2)Cn2cnc3cc(Cl)c(Cl)cc32)C(O)O1 (stereo partly drawn) [Example 5, (3S)-[(1S)-Cyclopentylmethyl-2-(5,6-dichloro-benzoimidazol-1-yl)-ethoxycarbonylamino]-4-oxo-butyric acid]",> 10
6,"O=C1C[C@H](NC(=O)[C@@H](CC(=O)N2CCOCC2)CC2CCCCC2)C(O)O1 (stereo partly drawn) [Example 6, (3S)-{(2R)-Cyclohexylmethyl-4-morpholin-4-yl-4-oxo-butyrylamino}-4-oxo-butyric acid]",> 100
7,"O=C1C[C@H](NC(=O)[C@H](CC2CCCCC2)NS(=O)(=O)c2cccc(OC(F)(F)F)c2)C(O)O1 (stereo partly drawn) [Example 7, (3S)-[3-Cyclohexyl-(2S)-(3-trifluoromethoxy-benzenesulfonylamino)-propionylamino]-4-oxo-butyric acid]",> 10
8,"O=C1C[C@H](NC(=O)[C@H](CC2CCCC2)NS(=O)(=O)c2cccc(OC(F)(F)F)c2)C(O)O1 (stereo partly drawn) [Example 8, (3S)-[3-Cyclopentyl-(2S)-(3-trifluoromethoxy-benzenesulfonylamino)-propionylamino]-4-oxo-butyric acid]",> 100
9,"CC(C)(C)C[C@H](OC(=O)N[C@H]1CC(=O)OC1O)C(=O)N1CCOCC1 (stereo partly drawn) [Example 9, (3S)-[3,3-Dimethyl-(1S)-(morpholine-4-carbonyl)-butoxycarbonylamino]-4-oxo-butyric acid]",> 100
10,"O=C1C[C@H](NC(=O)O[C@@H](CC2CCCCC2)C(=O)N2CCOCC2)C(O)O1 (stereo partly drawn) [Example 10, (3S)-[2-cyclohexyl-(1S)-(morpholin-4-carbonyl)-ethoxycarbonylamino]-4-oxo-butyric acid]",> 100
